Results reported in ChEMBL document CHEMBL4321821, “Opioids as Substrates and Inhibitors of the Genetically Highly Variable Organic Cation Transporter OCT1” (J Med Chem, 2019).

T1: OCT1 (SLC22A1) (Homo sapiens, UniProt O15245)
T1 sequence (O15245 whole entry): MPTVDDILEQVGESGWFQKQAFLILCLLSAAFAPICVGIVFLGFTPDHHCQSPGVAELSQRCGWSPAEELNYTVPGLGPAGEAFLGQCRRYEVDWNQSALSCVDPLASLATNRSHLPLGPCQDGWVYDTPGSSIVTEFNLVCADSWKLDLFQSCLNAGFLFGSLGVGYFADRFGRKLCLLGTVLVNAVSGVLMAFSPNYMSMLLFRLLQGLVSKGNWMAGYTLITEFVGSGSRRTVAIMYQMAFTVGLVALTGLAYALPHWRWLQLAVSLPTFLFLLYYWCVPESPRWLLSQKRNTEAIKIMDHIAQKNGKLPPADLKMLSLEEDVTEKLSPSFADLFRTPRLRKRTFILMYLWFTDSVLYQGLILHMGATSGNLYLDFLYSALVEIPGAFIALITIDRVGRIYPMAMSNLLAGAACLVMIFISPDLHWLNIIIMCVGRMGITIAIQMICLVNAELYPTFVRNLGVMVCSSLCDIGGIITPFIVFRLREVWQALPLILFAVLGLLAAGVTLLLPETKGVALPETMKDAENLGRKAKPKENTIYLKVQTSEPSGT

T2: Solute carrier family 22 member 1 (Homo sapiens, UniProt O15245)
T2 sequence (O15245 whole entry): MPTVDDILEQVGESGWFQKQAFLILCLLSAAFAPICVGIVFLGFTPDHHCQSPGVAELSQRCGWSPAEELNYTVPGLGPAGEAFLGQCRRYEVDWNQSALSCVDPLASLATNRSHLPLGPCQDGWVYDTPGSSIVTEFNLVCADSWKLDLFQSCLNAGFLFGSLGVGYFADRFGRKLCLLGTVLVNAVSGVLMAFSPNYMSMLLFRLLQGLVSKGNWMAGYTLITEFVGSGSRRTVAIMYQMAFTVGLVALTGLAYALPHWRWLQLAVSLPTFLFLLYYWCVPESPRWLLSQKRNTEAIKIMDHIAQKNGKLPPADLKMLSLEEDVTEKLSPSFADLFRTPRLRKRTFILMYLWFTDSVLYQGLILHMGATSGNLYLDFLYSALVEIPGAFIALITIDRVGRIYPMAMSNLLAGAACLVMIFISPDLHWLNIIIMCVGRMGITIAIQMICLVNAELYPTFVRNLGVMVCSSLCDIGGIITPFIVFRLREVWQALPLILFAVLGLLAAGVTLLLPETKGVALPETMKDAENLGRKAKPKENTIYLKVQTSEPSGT

B1: Solute carrier family 22 member 1 (Homo sapiens) (protein)
chain: MPTVDDILEQVGESGWFQKQAFLILCLLSAAFAPICVGIVFLGFTPDHHCQSPGVAELSQRCGWSPAEELNYTVPGLGPAGEAFLGQCRRYEVDWNQSALSCVDPLASLATNRSHLPLGPCQDGWVYDTPGSSIVTEFNLVCADSWKLDLFQSCLNAGFLFGSLGVGYFADRFGRKLCLLGTVLVNAVSGVLMAFSPNYMSMLLFRLLQGLVSKGNWMAGYTLITEFVGSGSRRTVAIMYQMAFTVGLVALTGLAYALPHWRWLQLAVSLPTFLFLLYYWCVPESPRWLLSQKRNTEAIKIMDHIAQKNGKLPPADLKMLSLEEDVTEKLSPSFADLFRTPRLRKRTFILMYLWFTDSVLYQGLILHMGATSGNLYLDFLYSALVEIPGAFIALITIDRVGRIYPMAMSNLLAGAACLVMIFISPDLHWLNIIIMCVGRMGITIAIQMICLVNAELYPTFVRNLGVMVCSSLCDIGGIITPFIVFRLREVWQALPLILFAVLGLLAAGVTLLLPETKGVALPETMKDAENLGRKAKPKENTIYLKVQTSEPSGT
B2: Solute carrier family 22 member 3 (Homo sapiens) (protein)
chain: MPSFDEALQRVGEFGRFQRRVFLLLCLTGVTFAFLFVGVVFLGTQPDHYWCRGPSAAALAERCGWSPEEEWNRTAPASRGPEPPERRGRCQRYLLEAANDSASATSALSCADPLAAFPNRSAPLVPCRGGWRYAQAHSTIVSEFDLVCVNAWMLDLTQAILNLGFLTGAFTLGYAADRYGRIVIYLLSCLGVGVTGVVVAFAPNFPVFVIFRFLQGVFGKGTWMTCYVIVTEIVGSKQRRIVGIVIQMFFTLGIIILPGIAYFIPNWQGIQLAITLPSFLFLLYYWVVPESPRWLITRKKGDKALQILRRIAKCNGKYLSSNYSEITVTDEEVSNPSFLDLVRTPQMRKCTLILMFAWFTSAVVYQGLVMRLGIIGGNLYIDFFISGVVELPGALLILLTIERLGRRLPFAASNIVAGVACLVTAFLPEGIAWLRTTVATLGRLGITMAFEIVYLVNSELYPTTLRNFGVSLCSGLCDFGGIIAPFLLFRLAAVWLELPLIIFGILASICGGLVMLLPETKGIALPETVDDVEKLGSPHSCKCGRNKKTPVSRSHL

Assays:
[1] = target: T1, OCT1 (SLC22A1); experiment: Substrate activity at human OCT1 expressed in HEK293 cells assessed as increase in compound uptake at 0.05 uM incubated for 2 mins by LC-MS/MS analysis relative to control empty vector transfected cells; format: cell-based; details: HEK293 cells that express human OCT1, read-out: FC
[2] = target: T1, OCT1 (SLC22A1); experiment: Substrate activity at human OCT1 expressed in HEK293 cells assessed as increase in compound uptake at 0.1 uM incubated for 2 mins by LC-MS/MS analysis relative to control empty vector transfected cells; format: cell-based; details: HEK293 cells that express human OCT1, read-out: FC
[3] = target: T1, OCT1 (SLC22A1); experiment: Substrate activity at human OCT1 expressed in HEK293 cells assessed as increase in compound uptake at 0.5 uM incubated for 2 mins by LC-MS/MS analysis relative to control empty vector transfected cells; format: cell-based; details: HEK293 cells that express human OCT1, read-out: FC
[4] = target: T2, Solute carrier family 22 member 1; experiment: Inhibition of human OCT1 expressed in HEK293 cells assessed as reduction in ASP+ substrate uptake by microplate reader based analysis; format: cell-based
[5] = in vitro; details: PAMPA
Description: Passive membrane permeability by LC-MS/MS analysis based PAMPA

[6] = Cmax in human at 80 mg, po dosed as immediate release formulation; format: ADME, organism-based; parameters: dose 80 mg, route oral; details: in vivo
[7] = Unbound Cmax in human at 80 mg, po dosed as immediate release formulation; format: ADME, organism-based; details: in vivo
[8] = Unbound maximal portal vein concentration of in human at 80 mg, po dosed as immediate release formulation; format: ADME, organism-based; details: in vivo
[9] = Ratio of unbound Cmax in human at 80 mg, po dosed as immediate release formulation to inhibition of human OCT1 expressed in HEK293 cells assessed as reduction in ASP+ substrate uptake by microplate reader based analysis; format: ADME, organism-based; details: in vivo
[10] = Ratio of unbound maximal portal vein concentration in human at 80 mg, po dosed as immediate release formulation to inhibition of human OCT1 expressed in HEK293 cells assessed as reduction in ASP+ substrate uptake by microplate reader based analysis; format: ADME, organism-based; details: in vivo
[11] = Ratio of unbound maximal portal vein concentration in human at 34 mg, iv to inhibition of human OCT1 expressed in HEK293 cells assessed as reduction in ASP+ substrate uptake by microplate reader based analysis; format: ADME, organism-based; details: in vivo
[12] = Unbound maximal portal vein concentration of in human at 34 mg, iv; format: ADME, tissue-based; details: in vivo
[13] = Ratio of unbound Cmax in human at 34 mg, iv to inhibition of human OCT1 expressed in HEK293 cells assessed as reduction in ASP+ substrate uptake by microplate reader based analysis; format: ADME, organism-based; details: in vivo
[14] = Cmax in human at 34 mg, iv; format: ADME; parameters: dose 34 mg, route intravenous; details: in vivo
[15] = Unbound Cmax in human at 34 mg, iv; format: ADME; details: in vivo
[16] = Ratio of unbound maximal portal vein concentration in human at 86 mg, po dosed as prolonged release formulation to inhibition of human OCT1 expressed in HEK293 cells assessed as reduction in ASP+ substrate uptake by microplate reader based analysis; format: ADME, organism-based; details: in vivo
[17] = Ratio of unbound Cmax in human at 86 mg, po dosed as prolonged release formulation to inhibition of human OCT1 expressed in HEK293 cells assessed as reduction in ASP+ substrate uptake by microplate reader based analysis; format: ADME, organism-based; details: in vivo
[18] = Unbound Cmax in human at 86 mg, po dosed as prolonged release formulation; format: ADME, organism-based; details: in vivo
[19] = Unbound maximal portal vein concentration of in human at 86 mg, po dosed as prolonged release formulation; format: ADME, organism-based; details: in vivo
[20] = Cmax in human at 86 mg, po dosed as prolonged release formulation; format: ADME, organism-based; parameters: dose 86 mg, route oral; details: in vivo
[21] = substrate: CNS(=O)(=O)Cc1ccc2[nH]cc(CCN(C)C)c2c1; experiment: Substrate activity at human OCT1 expressed in HEK293 cells assessed as increase in compound uptake by measuring Km incubated for 2 mins by LC-MS/MS analysis based Michaelis-Menten plot analysis relative to control empty vector transfected cells; format: cell-based
[22] = substrate: C[N+]1(CC2CC2)CC[C@]23c4c5ccc(O)c4O[C@H]2C(=O)CC[C@@]3(O)[C@H]1C5; experiment: Substrate activity at human OCT3 expressed in HEK293 cells assessed as increase in compound uptake by measuring Km incubated for 2 mins by LC-MS/MS analysis based Michaelis-Menten plot analysis relative to control empty vector transfected cells; format: cell-based

Molecule	uptake ratio at 2 min, 0.05 µM [1]	uptake ratio at 2 min, 0.1 µM [2]	uptake ratio at 2 min, 0.5 µM [3]	IC50 [4]	Papp [5]	further results
CCC1(c2cccc(O)c2)CCCCN(C)C1 (stereo not given) [MEPTAZINOL]	0.8	2.2	3.2	19 µM	14.3 ×10⁻⁶ cm/s	
COc1cccc([C@@]2(O)CCCC[C@@H]2CN(C)C)c1 [(R,R)-TRAMADOL]				88.8 µM	26.9 ×10⁻⁶ cm/s	
O=C1CC[C@@]2(O)[C@H]3Cc4ccc(O)c5c4[C@@]2(CCN3CC2CC2)[C@H]1O5 [NALTREXONE]	0.8	0.8	1	158 µM	15.1 ×10⁻⁶ cm/s	
COc1ccc2c3c1O[C@H]1C(=O)CC[C@H]4[C@@H](C2)N(C)CC[C@]314 [HYDROCODONE]	0.9	1.6	1.2	537 µM	9.1 ×10⁻⁶ cm/s	
CN1CC[C@]23CCCC[C@H]2[C@H]1Cc1ccc(O)cc13 [LEVORPHANOL]	1.5	1.7	1.3	8 to 8.48 µM	9.2 ×10⁻⁶ cm/s	
COc1ccc2c3c1O[C@H]1C(=O)CC[C@@]4(O)[C@@H](C2)NCC[C@]314	4	3.9	3.6	200 µM	0.9 ×10⁻⁶ cm/s	
CC[C@@H](c1cccc(O)c1)[C@@H](C)CN(C)C [TAPENTADOL]	0.9	1.6	1.5	21.9 µM	13.6 ×10⁻⁶ cm/s	Cmax [6]: 290 nM; fCmax [7]: 0.23 µM; fCmax [8]: 18.58 µM; Ratio [9]: 0.011; Ratio [10]: 0.849; Ratio [11]: 0.371; fCmax [12]: 8.13 µM; Ratio [13]: 0.04; Cmax [14]: 1100 nM; fCmax [15]: 0.88 µM; Ratio [16]: 0.842; Ratio [17]: 0.004; fCmax [18]: 0.08 µM; fCmax [19]: 18.43 µM; Cmax [20]: 100 nM
B1						Km [21]: 55 µM
B2						Km [22]: 22.5 µM; Vmax [22]: 1.75e-05 µmol/min/mg
